Measured values taken from paper PMC6556873, “Rapid Covalent-Probe Discovery by Electrophile-Fragment Screening” (Journal of the American Chemical Society, 2019).
Read-outs that look alike come from different tables or passages of the source.

Experiments:
BSA = target: T1, BSA (Bos taurus, UniProt P02769); parameters: Intact protein LC/MS covalent labelling, fragments in pools of five, 200 uM each, 4 °C; settings: 24 h, 4 °C, pool of five; 200 µM; covalent
T1 construct: gene ALB

NNMT (hNNMT) = target: T2, NNMT (hNNMT) (Homo sapiens, UniProt P40261); parameters: Intact protein LC/MS covalent labelling, fragments in pools of five, 200 uM each, 4 °C; settings: 24 h, 4 °C, pool of five; 200 µM; covalent
T2 construct: wild type, N-terminal His6 tag kept (no cleavage described), E. coli, construct 31248 Da
T2 sequence (P40261 1-264): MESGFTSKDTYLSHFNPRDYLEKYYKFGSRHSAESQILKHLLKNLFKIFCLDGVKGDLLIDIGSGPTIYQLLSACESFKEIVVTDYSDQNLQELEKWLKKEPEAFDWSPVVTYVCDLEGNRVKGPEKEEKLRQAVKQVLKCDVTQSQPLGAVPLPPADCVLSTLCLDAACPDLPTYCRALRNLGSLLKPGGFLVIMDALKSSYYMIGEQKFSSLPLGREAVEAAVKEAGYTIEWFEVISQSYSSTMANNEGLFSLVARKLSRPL

NUDT7 = target: T3, NUDT7 (Homo sapiens, UniProt P0C024); parameters: Intact protein LC/MS covalent labelling, fragments in pools of five, 200 uM each, 4 °C; settings: 24 h, 4 °C, pool of five; 200 µM; covalent
T3 construct: residues 14-235, E. coli, pNIC28-Bsa4, N-terminal His6 tag removed by TEV, construct 26672 Da
T3 sequence (P0C024 14-235): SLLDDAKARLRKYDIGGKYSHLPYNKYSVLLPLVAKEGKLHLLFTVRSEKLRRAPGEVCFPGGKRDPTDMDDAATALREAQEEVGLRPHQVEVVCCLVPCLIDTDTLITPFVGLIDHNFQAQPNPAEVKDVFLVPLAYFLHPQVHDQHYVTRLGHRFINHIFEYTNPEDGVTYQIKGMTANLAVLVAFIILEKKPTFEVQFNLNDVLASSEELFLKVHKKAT

PCAF = target: T4, PCAF (Homo sapiens, UniProt Q92831); parameters: Intact protein LC/MS covalent labelling, fragments in pools of five, 200 uM each, 4 °C; settings: 24 h, 4 °C, pool of five; 200 µM; covalent
T4 construct: gene KAT2B
T4 sequence (Q92831 whole entry, the tested form may be a part): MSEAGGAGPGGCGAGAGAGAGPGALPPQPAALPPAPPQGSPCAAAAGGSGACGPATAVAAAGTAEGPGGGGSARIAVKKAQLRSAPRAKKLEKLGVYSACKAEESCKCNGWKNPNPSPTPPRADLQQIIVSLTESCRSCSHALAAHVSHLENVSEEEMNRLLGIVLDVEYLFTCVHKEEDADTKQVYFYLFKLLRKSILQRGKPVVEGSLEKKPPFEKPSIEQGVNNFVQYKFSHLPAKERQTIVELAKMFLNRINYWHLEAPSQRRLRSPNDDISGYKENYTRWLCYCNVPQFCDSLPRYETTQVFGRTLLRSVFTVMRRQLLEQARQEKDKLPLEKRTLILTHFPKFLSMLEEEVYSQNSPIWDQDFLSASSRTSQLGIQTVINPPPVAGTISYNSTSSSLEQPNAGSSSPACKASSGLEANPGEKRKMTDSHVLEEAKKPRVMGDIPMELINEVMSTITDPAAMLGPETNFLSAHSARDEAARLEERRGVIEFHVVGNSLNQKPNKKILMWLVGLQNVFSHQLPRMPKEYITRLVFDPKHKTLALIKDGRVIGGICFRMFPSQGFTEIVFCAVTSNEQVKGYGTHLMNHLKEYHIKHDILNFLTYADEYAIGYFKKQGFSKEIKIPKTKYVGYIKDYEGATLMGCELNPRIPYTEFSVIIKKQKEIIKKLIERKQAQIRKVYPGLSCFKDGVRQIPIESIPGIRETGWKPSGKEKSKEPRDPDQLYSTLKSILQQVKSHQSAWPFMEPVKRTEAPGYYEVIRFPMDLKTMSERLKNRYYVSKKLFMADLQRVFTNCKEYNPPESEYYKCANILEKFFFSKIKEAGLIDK

in vitro [1] = experiment: in vitro; parameters: species or system CCD841, HEK293; settings: human, hb2 cells, read-out: HB-2 Cells Viability (%)
in vitro [2] = experiment: in vitro; parameters: species or system HB2, HEK293; settings: human, ccd841 cells
in vitro [3] = experiment: in vitro; parameters: species or system HB2, CCD841; settings: human, hek293 cells
OTUB2 (OTUB2A) = target: T5, OTUB2 (OTUB2A) (Homo sapiens, UniProt Q96DC9); parameters: Intact protein LC/MS covalent labelling, fragments in pools of five, 200 uM each, 4 °C; settings: 24 h, 4 °C, pool of five; 200 µM; covalent
T5 construct: full length residues 1-234, E. coli BL21(DE3)-R3, His tag removed by TEV, construct 27312 Da
T5 sequence (Q96DC9 1-234): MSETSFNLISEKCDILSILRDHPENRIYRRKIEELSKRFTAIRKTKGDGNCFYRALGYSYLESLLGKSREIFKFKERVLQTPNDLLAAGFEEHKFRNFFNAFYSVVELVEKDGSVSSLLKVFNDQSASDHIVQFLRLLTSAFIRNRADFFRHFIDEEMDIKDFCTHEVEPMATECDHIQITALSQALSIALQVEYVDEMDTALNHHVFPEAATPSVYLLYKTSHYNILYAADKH

T1 sequence (P02769 whole entry, the tested form may be a part): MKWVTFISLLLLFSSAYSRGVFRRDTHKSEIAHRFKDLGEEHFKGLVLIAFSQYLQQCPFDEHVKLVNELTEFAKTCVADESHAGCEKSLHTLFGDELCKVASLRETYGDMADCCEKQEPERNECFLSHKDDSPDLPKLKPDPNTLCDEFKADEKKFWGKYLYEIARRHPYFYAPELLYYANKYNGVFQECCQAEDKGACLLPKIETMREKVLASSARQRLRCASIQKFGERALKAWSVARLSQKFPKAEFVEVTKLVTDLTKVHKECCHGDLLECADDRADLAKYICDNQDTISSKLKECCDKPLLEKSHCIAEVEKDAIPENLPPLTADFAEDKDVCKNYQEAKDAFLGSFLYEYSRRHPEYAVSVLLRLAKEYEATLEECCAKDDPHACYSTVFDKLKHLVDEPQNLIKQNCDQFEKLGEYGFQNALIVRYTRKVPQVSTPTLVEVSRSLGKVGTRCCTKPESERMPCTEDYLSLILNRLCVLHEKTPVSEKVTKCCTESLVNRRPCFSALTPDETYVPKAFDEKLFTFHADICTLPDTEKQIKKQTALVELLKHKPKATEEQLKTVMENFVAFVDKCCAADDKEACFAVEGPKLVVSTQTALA

SMILES | BSA (BSA) | NNMT (NNMT (hNNMT)) | NUDT7 (NUDT7) | PCAF (PCAF) | OTUB2 (OTUB2 (OTUB2A)) | viability at 48 h, 10 µM (in vitro [1]) [%] | viability at 48 h, 10 µM (in vitro [2]) [%] | viability at 48 h, 10 µM (in vitro [3]) [%]
N#CC1(NC(=O)CCl)CCCC1 [PCM-0102136] | 0 | 0 | 0 | 0 | – | 70 | 61.1 | 44
O=C(CCl)NC1CCCCCCC1 [PCM-0102318] | 0 | 0 | 0 | 0 | – | 86.6 | 92.1 | 66.1
Cl.O=C(CCl)N1CCN(Cc2ccccc2)CC1 [PCM-0103063] | 0 | – | 0.07 | 0 | 0.35 | 72.1 | 81.1 | 60.1
O=C(CCl)N1CCC(c2nc3ccccc3s2)CC1 [PCM-0103068] | 0 | – | 0.65 | 0 | 0 | 17.4 | 46 | 15.4
COCC(=O)NNC(=O)CCl [PCM-0103070] | 0 | – | 0 | 0 | 0 | 95.3 | 85.8 | 97.1
O=C(CCl)NCc1ccc(Cl)s1 [PCM-0103080] | 0 | – | 0 | 0 | 0.79 | 79.6 | 61.2 | 73
CCN(C(=O)CCl)C1=CCCCC1 [PCM-0103084] | 0.19 | – | 0 | 0 | 0 | 106 | 97.8 | 120

The next lines start with results.

BSA (BSA) | NNMT (NNMT (hNNMT)) | NUDT7 (NUDT7) | PCAF (PCAF) | OTUB2 (OTUB2 (OTUB2A)) | SMILES | viability at 48 h, 10 µM (in vitro [1]) [%] | viability at 48 h, 10 µM (in vitro [2]) [%] | viability at 48 h, 10 µM (in vitro [3]) [%]
0 | 0.2 | 0 | 0 | – | Cc1ccccc1CNC(=O)CCl [PCM-0102253] | 99.6 | 86.6 | 93.4
0 | – | 0 | 0 | 0 | C=CC(=O)N1CCCC(c2nc3c(s2)CCCC3)C1 (stereo not drawn) [PCM-0103069] | 98.5 | 104 | 79.4
0 | – | 0.4 | 0 | 0 | O=C(CCl)N1CCCc2cccc(F)c21 [PCM-0103071] | 62.4 | 65.9 | 25.1
0 | – | 0 | 0 | 0 | C=CC(=O)NC(c1cnn(C)c1)C(F)(F)F (stereo not drawn) [PCM-0103073] | 99.5 | 107 | 94.4
0 | – | 0 | 0 | 0 | C=CC(=O)N1CCc2c(ncn(CC)c2=O)C1 [PCM-0103074] | 101 | 115 | 100
0 | – | 0 | 0 | 0 | C=CC(=O)NCc1snnc1C [PCM-0103079] | 104 | 102 | 97
0 | – | 0.15 | 0 | 0 | Cc1ccc(N(C(=O)CCl)C2C=CS(=O)(=O)C2)cc1C (stereo not drawn) [PCM-0103082] | 19.6 | 10.5 | 4.1
0 | – | 0 | 0 | 0 | C=CC(=O)NC1CCCn2nc(C)nc21 (stereo not drawn) [PCM-0103083] | 105 | 116 | 115
